Experimental data as given in article PMC8670630 (Bioorganic & medicinal chemistry letters, 2021).

How the values were obtained:
[1] = biological target: human sulfide:quinone oxidoreductase (SQOR) (Homo sapiens, UniProt Q9Y6N5); test: SQOR inhibition; assay type: biochemical
[2] = Mouse plasma protein binding; assay type: in vitro ADME
Caco-2 = Caco-2 permeability; assay type: in vitro ADME
[3] = system: murine model of heart failure; settings: ref [21],[22]; cited from earlier work
CoQ-binding site in SQOR = settings: in vitro tests; ref [21],[22]; cited from earlier work
mammalian cells = settings: in vitro tests; ref [21],[22]; cited from earlier work

human sulfide:quinone oxidoreductase (SQOR), sequence (Q9Y6N5 whole entry): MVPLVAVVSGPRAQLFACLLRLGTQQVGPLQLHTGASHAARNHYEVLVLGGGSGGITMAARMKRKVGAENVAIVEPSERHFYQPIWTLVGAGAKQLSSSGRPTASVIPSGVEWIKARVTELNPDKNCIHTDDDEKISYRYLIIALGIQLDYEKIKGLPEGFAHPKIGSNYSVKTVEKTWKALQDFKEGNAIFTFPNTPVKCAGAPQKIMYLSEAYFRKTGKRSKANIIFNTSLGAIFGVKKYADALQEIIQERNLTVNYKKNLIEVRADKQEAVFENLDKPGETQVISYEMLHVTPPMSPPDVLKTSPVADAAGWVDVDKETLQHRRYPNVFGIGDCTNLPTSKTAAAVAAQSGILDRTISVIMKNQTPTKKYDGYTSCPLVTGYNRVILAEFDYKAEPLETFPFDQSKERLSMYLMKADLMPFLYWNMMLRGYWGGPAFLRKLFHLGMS

For COc1nc(-c2ccccc2)cc(-c2ccc(Cl)cc2Cl)c1C#N [Compound 7], the “activity in IC50 assay (in words)” value [1] was “inactivity”.

For COc1nc(-c2ncccc2C)cc(-c2ccc(F)cc2)c1C#N [Compound 15], the “Mouse Plasma Protein Binding (% bound)” value [2] was 99.64 % bound, the “Caco-2 permeability A→B” value (Caco-2; A→B) was 0.455 1 × 10^−6 cm/s and the “Caco-2 permeability B→A” value (Caco-2; B→A) was 0.769 1 × 10^−6 cm/s.

In the case of COc1nc(-c2ncccc2C)cc(-c2ccc(N)cc2)c1C#N [Compound 19], the “effect on cardiac function and progression to heart failure” value [3] is given as “preserves cardiac function and prevents the progression to heart failure”, the “Mouse Plasma Protein Binding (% bound)” value [2] is given as 97.8 % bound and the “specificity for the CoQ-binding site in SQOR” value (CoQ-binding site in SQOR) is given as “high degree of specificity”. For the same compound, the “toxicity in mammalian cells” value (mammalian cells) was “little or no toxicity”.

In the case of CCOc1nc(-c2ccccc2)nc(-c2ccccc2)c1C#N [Compound 24], the “fold less active than the equivalent pyridine 21” value ([1]; SQOR inhibition, 24 versus 21) is reported as 2 fold.
